Results: PMC6290777, “Inhalation of the prodrug PI3K inhibitor CL27c improves lung function in asthma and fibrosis” (Nature Communications, 2018)

Tests used:
[1] = test system: OVA-induced chronic allergic asthma; assay: OVA-induced chronic allergic asthma model; assay type: in vivo, BALB/c mice
Description: BALF was performed to obtain leukocytes from alveolar space. The trachea was exposed and a 1.7-mm-outside-diameter polyethylene catheter was inserted. BAL was performed by washing the lungs three-times with three different 500 µl aliquots of PBS. BALF samples were centrifuged at 600 × g for 10 min at 4 °C on a histology glass slide and stained with Diff Quick (MICROPTIC, #DQ-ST). The number of leukocytes and differential counts of different population were obtained evaluating the percentage leukocyte populations over the total cell number.
Mice were anesthetized with a subcutaneous injection of ketamine and xylazine (130 mg/Kg ketamine and 8.5 mg/Kg xylazine) to maintain spontaneous breathing under anesthesia. Mice were tracheostomized, placed in a body plethysmograph and connected to a computer-controlled ventilator (Forced Pulmonary Maneuver System®, Buxco Research Systems©, Wilmington, North Carolina USA). First, an average breathing frequency of 160 breaths/min was imposed to the anesthetized animal by a pressure-controlled ventilation until a regular breathing pattern and complete expiration at each breathing cycle was obtained. Under mechanical respiration, respiratory flow and airway pressure were measured to compute dynamic compliance (Cdyn) and lung resistance (RL). To measure the TLC, pressure–volume maneuvers were performed, where lungs were inflated to a standard pressure of +30 cm H2O and then let slowly exhale until a negative pressure of −30 cm H2O was reached. To measure the FEV Fast-Flow Volume maneuvers was performed. In this maneuver, lungs were first inflated to +30 cm H2O (TLC) and, immediately, a negative pressure (−30 cm H2O) was applied in order to enforce expiration. To evaluate AHR, the same mice used in previous maneuvers (basal condition) received Metacholine, 1 mg/Kg (Acetyl-β-methylcholine chloride, A-2251, Sigma-Aldrich St.Louis, MO,USA) i.v., and 20 sec after, a new set of maneuvers were conducted to assess RL changes. Suboptimal maneuvers were rejected and for each test in every single mouse at least three acceptable maneuvers were conducted to obtain a reliable mean for all numeric parameters.
On day 1, BALB/c mice received systemic immunization by subcutaneous injection of 10 µg of chicken egg ovalbumin (OVA grade V, >98% pure; Sigma, St Louis, MO) diluted in 2 mg/mL Al(OH)3 followed by a booster injection at the day 14 (described in fig. 3). Nasal challenges were performed starting at the day 28, by inhalational exposure to aerosolised ovalbumin (1% ovalbumin in saline 0,9%) for 20 min per day, in alternated days during 16 days (day 28, 30, 32, 34, 36, 38, 40, 42 and 44). At the same time, mice received daily treatment from day 28 to 44 with CL27c (2 mg/ml dissolved in 0.5 % tylaxopol/saline solution, aerosolized for 30′) or vehicle (0.5% tyloxapol/saline solution, aerosolized for 30′), or dexamethasone (5 mg/kg i.p. injection). Untreated control groups included mice challenged with PBS alone. On day 45, mice were sacrificed, and samples were collected for further analysis.
IL-5, IL-13, eotaxin, TGF-β, KC, IL-17A, and MCP-1 levels in the BALF and anti-OVA IgE levels in serum were measured by ELISA technique using commercial DuoSet kits R&D Systems according to the instructions of the manufacturer. Results were expressed in levels of cytokines per ml of […] (pg/ml) or arbitrary units (A.U.).
The left lung was removed and fixed in 4% neutral phosphate-buffered formalin (pH 7.4)[10]. The tissues were dehydrated gradually in ethanol, embedded in paraffin, cut into 4 µm sections, stained with H&E, Gomori’s trichrome and periodic acid schiff (PAS), and examined under light microscopy by a pathologist in a double blinded manner. Images of lung sections were captured with a digital camera (Optronics DEI-470) connected to a microscope (Olympus IX70) with a magnification of ×40 or ×100. […]

[2] = test system: in vitro differentiated Treg; assay: Treg viability assessment; assay type: cell-based, C57BL/6 mice; details: 72 h; tested 1, 3, 10 or 30 uM
Description: Cells were obtained from Lymph nodes and spleen from naive C57BL/6. Cells were then purified with CD4 T cell isolation Kit and with CD25 biotin and microbeads anti-biotin. Purified cells were cultured for 72 h in a 96-wells plate with anti-CD3/CD28 coated (1 ug/ml), TGF-B (1 ng/ml), or Cl27C (1, 3, 10 or 30 uM). After 72 h, the cells were harvested and stained with PBS (2% Bovine serum fetal) and anti-CD4 and fixable viability dye for 10 min. Cells were then fixed and permeabilized with intracellular fixation and permeabilization buffer set (eBioscience). Anti-FoxP3 was used for […]. After the staining, the cells were acquired with FACS VERSE machine and analyzed by FlowJo X software. […]
obtained at 200 × magnification were analyzed using the software Image -J (NIH, USA). Results were expressed as extracellular matrix deposition area (pixels). […]
Akt phosphorylation was measured by western blot as described in the “Western blot analysis” in […]
Cells were obtained from Lymph nodes and spleen from naive C57Bl/6J and purified with CD4 T cell isolation Kit (Miltenyi Biotec #130-104-454) and with CD25 biotin (eBioscience #13-0252-81) and microbeads anti-biotin (Miltenyi Biotec #130-090-485). […] Positive stained cells were analyzed with FlowJo X software after removal of doublets events and debris through FSC-A/FSC-H gating.

[3] = CL27c 2 mg/ml aerosol or dexamethasone 5 mg/kg
[4] = aerosolized CL27c 2 mg/ml daily

COC(=O)c1cccc(Cn2cc(-c3cccc4c(=O)cc(N5CCOCC5)[nH]c34)nn2)c1 [CL27c]
accumulation of inflammatory cells in peribronchial and perivascular spaces [1, 3]: significantly decreased
lung function: lung resistance (RL) and dynamic compliance (Cdyn) [1, 3]: normalize lung function
peribronchial fibrosis (fibrotic airway remodeling) [1, 3]: significantly reduced
methacholine-evoked airway hyperresponsiveness ([1]; aerosolized CL27c 2 mg/ml): not able to modify methacholine-evoked airway hyperresponsiveness
metaplasia of goblet cells and mucus production (PAS) [1, 4]: prevented OVA-induced metaplasia of goblet cells and mucus production
reduction of tissue levels of eosinophil peroxidase (EPO) [1, 4]: 55%
reduction of tissue levels of myeloperoxidase (MPO) [1, 4]: 50%
Th2 mediators IL-5, IL-13, and Eotaxin ([1]; repeated administration): lowering of Th2 mediators
concentration with toxic effects on Treg viability [2]: 30 µM
